Reference: patent US11390616B2 (BRISTOL-MYERS SQUIBB COMPANY, priority 2015, dated 2022)

What follows are compounds tested against T1, human APJ receptor (Homo sapiens, UniProt P35414) (assay: Intracellular cAMP accumulation assay (APJ hcAMP, HTRF)). Settings: HEK293 cells stably expressing human APJ receptor; inhibition of forskolin-mediated cAMP production; read-out: APJ cAMP Potency range.
T1 construct: expressed in transfected cells; host or cells: HEK293
T1 sequence (P35414 1-380): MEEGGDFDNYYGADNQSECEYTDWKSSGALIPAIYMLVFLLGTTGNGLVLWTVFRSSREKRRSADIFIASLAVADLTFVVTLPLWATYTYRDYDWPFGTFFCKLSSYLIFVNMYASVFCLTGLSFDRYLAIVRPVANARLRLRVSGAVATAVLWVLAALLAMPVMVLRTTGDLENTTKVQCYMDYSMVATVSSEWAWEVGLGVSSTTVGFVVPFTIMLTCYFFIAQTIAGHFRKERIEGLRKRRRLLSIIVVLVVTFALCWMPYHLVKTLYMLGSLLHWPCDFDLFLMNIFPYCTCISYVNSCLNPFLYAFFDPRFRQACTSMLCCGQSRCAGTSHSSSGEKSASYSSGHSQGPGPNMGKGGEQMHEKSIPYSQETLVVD
Assay type: cell-based
Outline: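 HEK293 cells stably expressing the receptor (5,000/well) treated with compound plus […] and 2 μM forskolin for 30 min at room temperature; cAMP by HTRF against a cAMP standard curve. EC50 from variable-slope sigmoidal fit; Ymax as % of (Pyr1)apelin-13 inhibition.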
With `CCOCc1nc(=O)c(Cc2ccc(-c3ccc(F)nc3)cc2)c(O)n1[C@@H](COC)c1cc(F)cc(F)c1` [Example 125, 1-[(1R)-1-(3,5-difluorophenyl)-2-methoxyethyl]-2-(ethoxymethyl)-5-{[4-(6-fluoropyridin-3-yl)phenyl]methyl}-6-hydroxy-1,4-dihydropyrimidin-4-one] the EC50 was 10 to 100 nM.
`CC[C@@H](c1cc(F)cc(F)c1)n1c(CCC2CC2)nc(=O)c(Cc2ccc(-c3ccc(F)nc3C)cc2)c1O` [Example 107, 2-(2-cyclopropylethyl)-1-[(1S)-1-(3,5-difluorophenyl)propyl]-5-{[4-(6-fluoro-2-methylpyridin-3-yl)phenyl]methyl}-6-hydroxy-1,4-dihydropyrimidin-4-one] gave an EC50 of 0.01 to 10 nM.
In the case of `CCc1cccc(CC)c1-n1c(-c2ccn(CC)n2)nc(=O)c(Cc2ccc(-c3ccc(F)nc3C)c(F)c2)c1O` [Example 80, 1-(2,6-diethylphenyl)-2-(1-ethyl-1H-pyrazol-3-yl)-5-{[3-fluoro-4-(6-fluoro-2-methylpyridin-3-yl)phenyl]methyl}-6-hydroxy-1,4-dihydropyrimidin-4-one], the EC50 is reported as 0.01 to 10 nM.
`CCCCc1nc(O)c(Cc2cnn(Cc3ccccc3)c2)c(=O)n1-c1c(OC)cccc1OC` [Example 30, 5-[(1-benzyl-1H-pyrazol-4-yl)methyl]-2-butyl-3-(2,6-dimethoxyphenyl)-6-hydroxy-3,4-dihydropyrimidin-4-one] was tested, and the EC50 was 0.01 to 10 nM.
`CCc1cccc(CC)c1-n1c(-c2csc(C)n2)nc(=O)c(Cc2ccc(-c3ccncc3C)c(F)c2)c1O` [Example 74, 1-(2,6-diethylphenyl)-5-{[3-fluoro-4-(3-methylpyridin-4-yl)phenyl]methyl}-6-hydroxy-2-(2-methyl-1,3-thiazol-4-yl)-1,4-dihydropyrimidin-4-one] showed an EC50 of 0.01 to 10 nM.
In the case of `CCCCc1nc(=O)c(Cc2ccc(C3CC3)cc2)c(O)n1[C@@H](CC)c1cccc(C#N)c1` [Example 102, 3-[(1S)-1-{2-butyl-5-[(4-cyclopropylphenyl)methyl]-6-hydroxy-4-oxo-1,4-dihydropyrimidin-1-yl}propyl]benzonitrile], the EC50 is reported as 10 to 100 nM.
`CCCCc1nc(=O)c(Cc2ccc(-c3ccc(F)nc3)cc2)c(O)n1[C@@H](CC)c1cccc(C#N)c1` [Example 97, 3-[(1S)-1-(2-butyl-5-{[4-(6-fluoropyridin-3-yl)phenyl]methyl}-6-hydroxy-4-oxo-1,4-dihydropyrimidin-1-yl)propyl]benzonitrile] gave an EC50 of 0.01 to 10 nM.
Compound `CCCCc1nc(O)c(Cc2ccc(-n3ccccc3=O)cc2)c(=O)n1-c1c(OC)cccc1OC` [Example 28, 2-butyl-3-(2,6-dimethoxyphenyl)-6-hydroxy-5-{[4-(2-oxo-1,2-dihydropyridin-1-yl)phenyl]methyl}-3,4-dihydropyrimidin-4-one] has an EC50 of 0.01 to 10 nM.
For `CCCCc1nc(=O)c(Cc2cccc(-c3ccc(F)cc3C(N)=O)c2)c(O)n1[C@@H](CC)c1cc(F)cc(F)c1` [Example 131, 3′-({2-butyl-1-[(1S)-1-(3,5-difluorophenyl)propyl]-6-hydroxy-4-oxo-1,4-dihydropyrimidin-5-yl}methyl)-4-fluoro-[1,1′-biphenyl]-2-carboxamide], the EC50 was 10 to 100 nM.
Compound `CCCCc1nc(O)c(Cc2csc(-c3ccc(C)cc3)n2)c(=O)n1-c1c(OC)cccc1OC` [Example 23, 2-butyl-3-(2,6-dimethoxyphenyl)-6-hydroxy-5-{[2-(4-methylphenyl)-1,3-thiazol-4-yl]methyl}-3,4-dihydropyrimidin-4-one] has an EC50 of 10 to 100 nM.
In the case of `CCCCc1nc(O)c(Cc2ccc(-n3cc(C)ccc3=O)cc2)c(=O)n1-c1c(OC)cccc1OC` [Example 50, 2-butyl-3-(2,6-dimethoxyphenyl)-6-hydroxy-5-{[4-(5-methyl-2-oxo-1,2-dihydropyridin-1-yl)phenyl]methyl}-3,4-dihydropyrimidin-4-one], the EC50 is reported as 0.01 to 10 nM.
For `CC[C@@H](c1ccccc1)n1c(-c2nc(C)cs2)nc(=O)c(Cc2ccc(-c3ccnc(F)c3C)c(F)c2)c1O` [Example 118, 5-{[3-fluoro-4-(2-fluoro-3-methylpyridin-4-yl)phenyl]methyl}-6-hydroxy-2-(4-methyl-1,3-thiazol-2-yl)-1-[(1S)-1-phenylpropyl]-1,4-dihydropyrimidin-4-one], the EC50 was 0.01 to 10 nM.
Work on `CCc1cccc(CC)c1-n1c(-c2ccn(C(C)C)n2)nc(=O)c(Cc2ccc(-c3ccc(F)cc3C(N)=O)c(F)c2)c1O` [Example 84, 4′-{[1-(2,6-diethylphenyl)-6-hydroxy-4-oxo-2-[1-(propan-2-yl)-1H-pyrazol-3-yl]-1,4-dihydropyrimidin-5-yl]methyl}-2′,4-difluoro-[1,1′-biphenyl]-2-carboxamide] yielded an EC50 of 0.01 to 10 nM.
In the case of `Cc1ncccc1-c1ccc(Cc2c(O)n([C@H](c3cc(F)cc(C#N)c3)C(C)C)c(COC(C)C)nc2=O)cc1` [Example 121, 3-fluoro-5-[(1S)-1-(6-hydroxy-5-{[4-(2-methylpyridin-3-yl)phenyl]methyl}-4-oxo-2-[(propan-2-yloxy)methyl]-1,4-dihydropyrimidin-1-yl)-2-methylpropyl]benzonitrile], the EC50 is reported as 10 to 100 nM.
Compound `CCc1cccc(CC)c1-n1c(-c2ccn(CC)n2)nc(=O)c(Cc2ccc(-c3ccncc3C)c(F)c2)c1O` [Example 76, 1-(2,6-diethylphenyl)-2-(1-ethyl-1H-pyrazol-3-yl)-5-{[3-fluoro-4-(3-methylpyridin-4-yl)phenyl]methyl}-6-hydroxy-1,4-dihydropyrimidin-4-one] has an EC50 of 0.01 to 10 nM.
In the case of `COc1cccc(OC)c1-n1c(CCC(C)C)nc(O)c(Cc2ccc(-n3cc(C)ccc3=O)cc2)c1=O` [Example 54, 3-(2,6-dimethoxyphenyl)-6-hydroxy-5-{[4-(5-methyl-2-oxo-1,2-dihydropyridin-1-yl)phenyl]methyl}-2-(3-methylbutyl)-3,4-dihydropyrimidin-4-one], the EC50 is reported as 0.01 to 10 nM.
For `CCCCc1nc(=O)c(Cc2cccc(-c3ccnc(F)c3C)c2)c(O)n1[C@@H](CC)c1cc(F)cc(F)c1` [Example 128, 2-butyl-1-[(1S)-1-(3,5-difluorophenyl)propyl]-5-{[3-(2-fluoro-3-methylpyridin-4-yl)phenyl]methyl}-6-hydroxy-1,4-dihydropyrimidin-4-one], the EC50 was 10 to 100 nM.
`CCc1cccc(CC)c1-n1c(-c2nc(C)cs2)nc(=O)c(Cc2ccc(-c3ccncc3C)c(F)c2)c1O` [Example 75, 1-(2,6-diethylphenyl)-5-{[3-fluoro-4-(3-methylpyridin-4-yl)phenyl]methyl}-6-hydroxy-2-(4-methyl-1,3-thiazol-2-yl)-1,4-dihydropyrimidin-4-one] gave an EC50 of 0.01 to 10 nM.
`CCOCc1nc(=O)c(Cc2ccc(-c3cccnc3C)cc2)c(O)n1[C@@H](COC)c1cc(F)cc(F)c1` [Example 123, 1-[(1R)-1-(3,5-difluorophenyl)-2-methoxyethyl]-2-(ethoxymethyl)-6-hydroxy-5-{[4-(2-methylpyridin-3-yl)phenyl]methyl}-1,4-dihydropyrimidin-4-one] gave an EC50 of 0.01 to 10 nM.
`CCOCc1nc(O)c(Cc2ccc(-c3ncon3)cc2)c(=O)n1-c1c(OC)cccc1OC` [Example 32, 3-(2,6-dimethoxyphenyl)-2-(ethoxymethyl)-6-hydroxy-5-{[4-(1,2,4-oxadiazol-3-yl)phenyl]methyl}-3,4-dihydropyrimidin-4-one] was tested, and the EC50 was 10 to 100 nM.
Work on `CCCCc1nc(=O)c(Cc2ccc(-c3ccc(F)nc3C)cc2)c(O)n1[C@@H](CC)c1cccc(F)c1` [Example 104, 2-butyl-5-{[4-(6-fluoro-2-methylpyridin-3-yl)phenyl]methyl}-1-[(1S)-1-(3-fluorophenyl)propyl]-6-hydroxy-1,4-dihydropyrimidin-4-one] yielded an EC50 of 0.01 to 10 nM.
For `CCc1cccc(CC)c1-n1c(-c2nc(C)cs2)nc(=O)c(Cc2ccc(-c3ccnc(F)c3C)c(F)c2)c1O` [Example 73, 1-(2,6-diethylphenyl)-5-{[3-fluoro-4-(2-fluoro-3-methylpyridin-4-yl)phenyl]methyl}-6-hydroxy-2-(4-methyl-1,3-thiazol-2-yl)-1,4-dihydropyrimidin-4-one], the EC50 was 0.01 to 10 nM.
`CCCCc1nc(O)c(Cc2ccn(-c3ccc(Cl)cc3)n2)c(=O)n1-c1c(OC)cccc1OC` [Example 24, 2-butyl-5-{[1-(4-chlorophenyl)-1H-pyrazol-3-yl]methyl}-3-(2,6-dimethoxyphenyl)-6-hydroxy-3,4-dihydropyrimidin-4-one] showed an EC50 of 0.01 to 10 nM.
Compound `CCCCc1nc(O)c(Cc2csc(-c3ccc(Cl)cc3)n2)c(=O)n1-c1c(OC)cccc1OC` [Example 22, 2-butyl-5-{[2-(4-chlorophenyl)-1,3-thiazol-4-yl]methyl}-3-(2,6-dimethoxyphenyl)-6-hydroxy-3,4-dihydropyrimidin-4-one] has an EC50 of 10 to 100 nM.

Same assay, conditions: HEK293 cells stably expressing human APJ receptor; inhibition of forskolin-mediated cAMP production; read-out: Human APJ cAMP EC50 potency range
`COc1cccc(OC)c1-n1c(-c2ccc(F)cc2)nc(O)c(Cc2ccc(-n3cc(F)ccc3=O)cc2)c1=O` [Example 37, 3-(2,6-dimethoxyphenyl)-5-(4-(5-fluoro-2-oxopyridin-1(2H)-yl)benzyl)-2-(4-fluorophenyl)-6-hydroxypyrimidin-4(3H)-one] showed an EC50 of 0.01 to 10 nM.
`CCOCc1nc(O)c(Cc2ccc(-n3ccccc3=O)cc2)c(=O)n1-c1c(OC)cccc1OC` [Example 1] showed an EC50 of 100 to 300 nM.
`CCCCc1nc(=O)c(Cc2ccc(Br)cc2)c(O)n1[C@@H](CC)c1cccc(C#N)c1` [Compound 95i, (S)-3-(1-(5-(4-bromobenzyl)-2-butyl-6-hydroxy-4-oxopyrimidin-1(4H)-yl)propyl)benzonitrile] gave an EC50 of 10 to 100 nM.
